From patent US20050288369A1, “Novel n-hydroxy thiourea, urea and amide compounds and the pharmaceutical compositions comprising the same” (priority 2002, published 2005)
Values belong to the compound of their own block, whether it stands above or below them.

How the values were obtained:
[1] = target: T1, vanilloid receptor-1 (VR1) (Rattus norvegicus, UniProt O35433); experiment: [3H]RTX competition binding assay, VR1-expressing CHO cells; conditions: displacement of bound [3H]RTX; mean±SEM, 3 experiments
T1 construct: expressed in transfected cells; host or cells: Chinese Hamster Ovary cells (CHO, ATCC CCL-61), Tet-off inducible expression
T1 sequence (O35433 whole entry): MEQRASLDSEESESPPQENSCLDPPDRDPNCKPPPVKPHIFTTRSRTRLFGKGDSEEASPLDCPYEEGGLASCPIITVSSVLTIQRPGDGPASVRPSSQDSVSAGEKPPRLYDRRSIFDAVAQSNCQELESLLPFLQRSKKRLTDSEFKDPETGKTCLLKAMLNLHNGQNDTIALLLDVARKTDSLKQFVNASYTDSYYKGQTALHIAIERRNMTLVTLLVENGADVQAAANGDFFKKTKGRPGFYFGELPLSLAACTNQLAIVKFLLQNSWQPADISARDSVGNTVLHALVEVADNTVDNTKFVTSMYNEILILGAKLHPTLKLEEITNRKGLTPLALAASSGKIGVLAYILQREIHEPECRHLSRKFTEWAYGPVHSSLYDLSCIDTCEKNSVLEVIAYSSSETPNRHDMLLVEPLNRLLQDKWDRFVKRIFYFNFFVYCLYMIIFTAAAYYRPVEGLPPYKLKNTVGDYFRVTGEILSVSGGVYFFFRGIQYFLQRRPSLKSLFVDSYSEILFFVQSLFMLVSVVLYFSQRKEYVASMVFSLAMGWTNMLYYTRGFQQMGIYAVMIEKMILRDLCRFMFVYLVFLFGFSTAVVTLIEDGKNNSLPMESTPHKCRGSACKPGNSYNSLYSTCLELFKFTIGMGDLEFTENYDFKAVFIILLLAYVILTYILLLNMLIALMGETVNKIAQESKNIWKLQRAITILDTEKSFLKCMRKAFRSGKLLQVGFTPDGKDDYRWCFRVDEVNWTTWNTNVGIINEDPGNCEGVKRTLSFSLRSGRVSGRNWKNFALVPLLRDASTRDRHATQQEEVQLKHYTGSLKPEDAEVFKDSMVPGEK
Experimental: The binding affinity activity of the target compounds for vanilloid receptor-1 was measured by an in vitro receptor binding affinity assay. In the receptor binding assay, the compounds were evaluated for their ability to displace bound [^3H]RTX from the receptor. The results are expressed in terms of Ki values (mean±SEM, 3 experiments) which represent the concentration of the non-radioactive ligand that displaces half of the bound labeled RTX.
The VR receptor binding affinity activity of the inventive compounds was measured by using Chinese Hamster Ovary (CHO, ATCC, No. CCL-61) cell whose cDNA of VR1 (pUHG102 VR1 plasmid) was transfected, which can control the expression of VR1 according to the presence of tetracycline and Tetracycline on/off system (pTet off regulatory plasmid, Clontech. Inc., USA) that the expression of VR1 is induced by removing tetracycline from the medium. […] The cells were cultured after removing tetracycline prior to 48 hours. The tetracycline free culture medium was seeded at the bottom of T75 flask, incubated to the extent that its density reaches at 90%, and washed once with PBS buffer solution. The cells were collected by using saline solution containing 5 mM EDTA and subjected to centrifugation slightly to obtain precipitates, further, which had been kept at the temperature of −20° C. before use.
Experiments were designed to assess inhibition of specific [^3H]RTX binding to membranes by non-radioactive compounds. The binding assay mixture containing [^3H]RTX ([…]), various concentrations of competitive binding substances, 0.25 mg/ml of BSA (Cohn fraction V), 5×10^4 ˜5×10^5 numbers of VR1 and the expression cell, was admixed with saline solution containing 450 μl of Ca^2+ and Mg^2+ and […] of BSA. Non-specific binding assay was measured after mixing 100 nM of non-radioactive RTX thereto. The reaction mixture was treated for 60 min at 37° C. and the reaction was quenched by cooling over ice. RTX bound to the membrane of VR1 was subjected to centrifugation with maximum velocity for 15 minutes to precipitate its membrane residue, which results in separating from non-binding RTX. The tips of tube containing above precipitate was cut off and the amount of bound radioisotope was determined by scintillation counter (LS6500, Beckman-Coulter, USA). The measurement of binding was determined in triplicate in each experiment, and each experiment was repeated at least two times. Binding data were analyzed by fitting to the Hill equation and the Ki (equilibrium binding parameter) index, the Bmax (maximum binding parameter) index, and the cooperativity index etc., were determined by using origin 6.0 program (Origin, MicroCal Co., USA).
An initial compound was dissolved in DMSO (dimethyl sulfoxide) and diluted with saline solution containing Ca^2+ and […], and […] of BSA.

VR1 [2] = target: T2, VR1 (Rattus norvegicus, UniProt O35433); experiment: 45Ca influx test in CHO cells expressing VR1, antagonistic activity against 50 nM capsaicin; type: cell-based; conditions: 45Ca uptake stimulated with 50 nM capsaicin
T2 construct: expressed in transfected cells; host or cells: Chinese Hamster Ovary cells (CHO, ATCC CCL-61), Tet-off inducible expression
T2 sequence (O35433 whole entry): as above
Experimental: (§1) The ^45Ca Influx test by using CHO cells of the inventive compounds was measured by using Chinese Hamster Ovary (CHO, ATCC, No. CCL-61) cell whose cDNA of VR1 (pUHG102 VR1 plasmid) was transfected, which can control the expression of VR1 according to the presence of tetracycline and Tetracycline on/off system (pTet off regulatory plasmid, Clontech. Inc., USA) that the expression of VR1 is induced by removing tetracycline from the medium.
(§2) The CHO cells were poured onto 24 well plates to the extent that its density reaches at 30% and incubated for 24 hours at 37° C. The culture medium was exchanged to tetracycline free medium to induce the expression of VR1 and tested after 36 hours.
(§3) Together with 0.25 mg/ml BSA (Sigma A2153, USA), 1 Ci/ml ^45Ca(5-30 Ci/g used, ICN. Co., 62005 RT, U.S.A.), the test samples with increasing concentrations were added to each well. At the quenching moment of the incubation with ^45Ca, the cultured cells were removed from the medium, washed three times with cool PBS buffer solution containing 1.8 mM CaCl2 and 400 μl of RIPA buffer solution (50 mM Tris pH 7.4; 150 mM sodium chloride; 0.1% SDS; 1% sodium deoxycholate), was added in each well to homogenize the cells. The plates were stirred for 20 minutes slowly and 300 μl of cell lysate was transferred to scintillation vials from each wells. The radioactivity was determined by scintillation counter.
(§4) The data were assessed by determining four wells per each data point in each experiment and analyzed in computer by being transformed into Hill equation. The experiments were determined in triplicate in each sample comprising inventive compounds and control groups.
In order to determine the antagonistic activity, ^45Ca^2+-uptake stimulating-mixture was added with 50 nM capsaicin and the antagonistic activity was determined by the method for the agonistic activity. In case that 10 μM a certain compound cannot change the capsaicin-inducing activity, the compound shall be regarded as an […].

VR1 [3] = target: T2, VR1; experiment: 45Ca influx test in CHO cells expressing VR1, agonistic activity; type: cell-based; conditions: 45Ca uptake
Experimental: The ^45Ca Influx test by using CHO cells expressing VR1 was performed by the procedure described in the literature (Lee, J. W., Bioorganic & Medicinal Chemistry, pp 1713-1720, 2001).
as §1, §2
as §3, with “In radioactive ^45Ca uptake experiment, The cells were incubated in […] of DMEM medium (Dulbecco's modified Eagles medium: Gibco-BRL, 31600-083) containing free of serum and 1.8 mM CaCl2 for 10 minutes at 37*C. Together” for “Together”
as §4

Male ICR mice = experiment: Acetic acid-induced writhing test; type: in vivo; conditions: Mus musculus, ip; i.p. 30 mins before 1.2% acetic acid i.p.; 50% reduction of the number of writhes
Experimental: The acetic acid-induced writhing test for testing the analgesic activity of inventive compounds prepared from above Examples was performed by the procedure described in the literature (Lee, J. W., Bioorganic & Medicinal Chemistry, pp 1713-1720, 2001).
Male ICR mice having its mean body weight of 25 g (CD-1; Biogenomics Co. Korea) were reared in lighting controlled environment (12 hrs on/12 hrs off) maintaining with temperatures at 22±2° C. and humidity at 50±5% and allowed to eat a diet and to drink tap water ad lib.
Mice were fasted overnight prior to testing and adopted to the environment.
0.3 ml of acetic acid solution (1.2%) was administrated in the mice intraperitoneally and then the mice were put into the transparent acryl box (15×15×15 cm). 5 minutes later, the number of abdominal constrictions was counted for 20 minutes. Each group consisting of ten mice was pretreated with test compounds or solvent (0.2 ml, i.p.) 30 mins before the injection of acetic acid. Test compounds were dissolved in the mixture of ethanol/Tween-80/saline ([…]) or cremophor EL/DMSO/d-water ([…]).
Analgesic activity of each drug was determined at several different concentrations.
The index of analgesic activity (eff) was defined as below Empirical formula 1. Analgesic activity (eff)=100−{(No. of abdominal constriction of test group/No. of abdominal constriction of control group)×100} [Empirical formula 1]
Analgesic activity was expressed as the reduction in the number of abdominal constrictions, of control animals (vehicle-pretreated mice) and animals pretreated with test compounds.

Ki [1]: 1350 nM
IC50 (VR1 [2]): 520 nM
SMILES: Oc1cc2c(cc1O)CN(C(=S)NCCc1ccc(Cl)cc1)CCC2 [Capsazepine, reference compound]

SMILES: CC(C)(C)c1ccc(CN(O)C(=S)NCc2ccc(NS(C)(=O)=O)c(Cl)c2)cc1 [Compound 31, N-(4-tert-butylbenzyl)-N-hydroxy-N-[3-chloro-4-(methylsulfonylamino)benzyl]thiourea]
Ki [1]: 1310 nM
IC50 (VR1 [2]): 579 nM

SMILES: CC(C)(C)c1ccc(CN(O)C(=S)NCc2ccc(NS(C)(=O)=O)c([N+](=O)[O-])c2)cc1 [Compound 32, N-(4-tert-butylbenzyl)-N-hydroxy-N-[4-(methylsulfonylamino)-3-nitrobenzyl]thiourea]
IC50 (VR1 [2]): 635 nM

SMILES: CC(C)(C)c1ccc(CN(O)C(=S)NCc2ccc(NS(C)(=O)=O)cc2F)cc1 [Compound 33, N-(4-tert-butylbenzyl)-N-hydroxy-N-[2-fluoro-4-(methylsulfonylamino)benzyl]thiourea]
Ki [1]: 1920 nM
EC50 (VR1 [3]): 12300 nM

SMILES: CC(C)(C)c1ccc(CN(O)C(=S)NCc2ccc(NS(C)(=O)=O)cc2Cl)cc1 [Compound 34, N-(4-tert-butylbenzyl)-N-hydroxy-N-[2-chloro-4-(methylsulfonylamino)benzyl]thiourea]
Ki [1]: 2270 nM

SMILES: COc1cc(CNC(=S)N(O)CC(COC(=O)C(C)(C)C)Cc2ccc(C)c(C)c2)ccc1NS(C)(=O)=O (stereo not drawn) [Compound 36, N-[2-(3,4-dimethylbenzyl)-3-(pivaloyloxy)propyl]-N-hydroxy-N-[3-methoxy-4-(methylsulfonylamino)benzyl]thiourea]
Ki [1]: 396 nM
EC50 (VR1 [3]): 809 nM

SMILES: Cc1ccc(CC(COC(=O)C(C)(C)C)CN(O)C(=S)NCc2ccc(NS(C)(=O)=O)cc2F)cc1C (stereo not drawn) [Compound 38, N-[2-(3,4-dimethylbenzyl)-3-(pivaloyloxy)propyl]-N-hydroxy-N-[2-fluoro-4-(methylsulfonylamino)benzyl]thiourea]
EC50 (VR1 [3]): 1350 nM

SMILES: Cc1ccc(CC(COC(=O)C(C)(C)C)CN(O)C(=S)NCc2ccc(NS(C)(=O)=O)cc2Cl)cc1C (stereo not drawn) [Compound 39, N-[2-(3,4-dimethylbenzyl)-3-(pivaloyloxy)propyl]-N-hydroxy-N-[2-chloro-4-(methylsulfonylamino)benzyl]thiourea]
Ki [1]: 221 nM
IC50 (VR1 [2]): 757 nM

SMILES: CC(C)(C)C(=O)OCC(Cc1ccc(C(C)(C)C)cc1)CN(O)C(=S)NCc1ccc(NS(C)(=O)=O)cc1 (stereo not drawn) [Compound 40, N-[2-(4-tert-butylbenzyl)-3-(pivaloyloxy)propyl]-N-hydroxy-N-[4-(methylsulfonylamino)benzyl]thiourea]
Ki [1]: 536 nM
EC50 (nM) (VR1/CHO) (VR1 [3]): weak

SMILES: CC(C)(C)C(=O)OCC(Cc1ccc(C(C)(C)C)cc1)CN(O)C(=S)NCc1ccc(NS(C)(=O)=O)c(F)c1 (stereo not drawn) [Compound 41, N-[2-(4-tert-butylbenzyl)-3-(pivaloyloxy)propyl]-N-hydroxy-N-[3-fluoro-4-(methylsulfonylamino)benzyl]thiourea]
Ki [1]: 405 nM
EC50 (nM) (VR1/CHO) (VR1 [3]): Weak
IC50 (nM) (VR1/CHO) (VR1 [2]): Weak

Ki [1]: 481 nM
EC50 (nM) (VR1/CHO) (VR1 [3]): Weak
IC50 (nM) (VR1/CHO) (VR1 [2]): Weak
SMILES: Cc1ccc(CC(CNC(=S)N(O)Cc2ccc(NS(C)(=O)=O)cc2)COC(=O)C(C)(C)C)cc1C (stereo not drawn) [Compound 61, N-[2-(3,4-dimethylbenzyl)-3-(pivaloyloxy)propyl]-N-hydroxy-N-[4-(methylsulfonylamino)benzyl]thiourea]

Ki [1]: 5310 nM
EC50 (VR1 [3]): 1960 nM
SMILES: CC(C)(C)c1ccc(CC(=O)N(O)Cc2ccc(NS(C)(=O)=O)cc2)cc1 [Compound 63, N-hydroxy-N-[4-(methylsulfonylamino)benzyl]-2-(4-tert-butylphenyl)acetamide]

Ki [1]: 546 nM
EC50 (nM) (VR1/CHO) (VR1 [3]): Weak
SMILES: Cc1ccc(CC(CNC(=S)N(O)Cc2ccc(NS(C)(=O)=O)c(F)c2)COC(=O)C(C)(C)C)cc1C (stereo not drawn) [Compound 64, N-[2-(3,4-dimethylbenzyl)-3-(pivaloyloxy)propyl]-N-hydroxy-N-[3-fluoro-4-(methylsulfonylamino)benzyl]thiourea]

SMILES: Cc1ccc(CC(CNC(=S)NCc2ccc(NS(C)(=O)=O)cc2)COC(=O)C(C)(C)C)cc1C (stereo not drawn) [JYL-827, reference compound]
ED50 (Male ICR mice): 2.62 µg/kg

SMILES: Cc1ccc(CC(CNC(=S)NCc2ccc(NS(C)(=O)=O)c(F)c2)COC(=O)C(C)(C)C)cc1C (stereo not drawn) [JYL-1433, reference compound]
ED50 (Male ICR mice): 7.43 µg/kg

SMILES: CC(C)(C)c1ccc(CNC(=S)NCc2ccc(NS(C)(=O)=O)cc2)cc1 [KJM-429, reference compound]
ED50 (Male ICR mice): 1410 µg/kg

SMILES: O=C(c1ccccc1)c1ccc2n1CCC2C(=O)O (stereo not drawn) [Ketorolac, reference compound]
ED50 (Male ICR mice): 2820 µg/kg

SMILES: CC(C)(C)c1ccc(CNC(=S)NCc2ccc(NS(C)(=O)=O)c(F)c2)cc1 [SC-0030, reference compound]
ED50 (Male ICR mice): 1.26 µg/kg
